The values below are quoted from earlier work in US10863741B2, “Herbicidal compositions” (HOMS, LLC, priority 2015, dated 2020).

The test system of this data set is male rats. Particulars: chronic exposure.

`C=C(C)[C@H]1CC=C(C)CC1` [d-limonene]: the Tumor incidence entry was “significant incidence of renal tubular tumors”.
